Data set [1] can be described thus: Metal chelation by UV-visible absorbance and fluorescence spectra. The note with it: for interaction with Cu (II) and Zn (II), change in absorbance spectra / chelation among different physiologically relevant metals, absorbance: NMIs 20 μM; for chelation among different physiologically relevant metals, absorbance: metals 40 μM. Format: physicochemical. The source says: The compounds of the present disclosure (NMIs) were designed to chelate with metals (Cu and Zn) and alleviate the metal-dependent Aβ toxicity. […] The change in absorbance and fluorescence spectra of NMIs were monitored to understand the interaction with Cu(II) and Zn(II). […] The fluorescence intensity of M3 at 525 nm decreased with the increasing concentration of Cu(II) or Zn(II) (FIGS. 6(A & B)).

Data set [2] concerns the target T1, Aβ in the presence of Cu (II) (Homo sapiens, UniProt P05067).
T1 construct: is a 42 amino acid proteolytic product from the amyloid precursor protein; purchased Invitrogen
Put plainly: Cu-dependent Aβ aggregation, native PAGE and western blot. It counts as biochemical. The note with it: Aβ 10 μM, Cu (II) 20 μM, NMIs 20 μM, 37° C., 48 h. The protocol: The samples were prepared by incubating Aβ42 with specific concentration of NMI compounds of present disclosure and metal ions for 48 h and then subjected to 6% native polyacrylamide gel electrophoresis (Native-PAGE) in tris-glycine buffer. The lower molecular weight aggregates permeabilized through the gel and resolved in the gel. Higher molecular aggregates stuck in the upper part of wells and potentially carried in gel. Then the protein was transferred to PVDF membrane for 4 h at cold condition maintained using ice cold transfer buffer and immersing the transfer apparatus in ice. Then the blots were continued similar to dot blots.
The absorbance and fluorescence spectroscopy studies together with mass spectrometry data confirmed the selective Cu (II) or Zn (II) chelation property of M1 and M3. […] Aβ (10 μM) was incubated in the presence of Cu (II) or Zn (II) (20 μM) with NMIs at 37° C. for 48 h and the samples were subjected to native PAGE and western blot analysis. […] Modulation of Zn-dependent Aβ aggregation by M4 was attributed to its two Zn (II) chelation centres. M3 with dopamine and DPA moieties effectively modulated both Cu (II) and Zn (II)-dependent Aβ aggregation. The effect of NMIs on the morphological outcome of metal-dependent Aβ aggregation was visualized by AFM imaging (FIGS. 1E and 1F). Aβ in the presence of Cu (II) and Zn (II) formed dense and thick fibrils.
For orientation: A western blot detects proteins with antibodies after separation by electrophoresis.

The target in another data set is T2, Aβ (Homo sapiens, UniProt P05067).
T2 construct: is a 42 amino acid proteolytic product from the amyloid precursor protein; purchased Invitrogen
The experiment in a line: AFM imaging of Aβ samples. The note with it: for morphology of Aβ sample, aggregation inhibition: Aβ 10 μM, FIG. 1C. As for the experimental part:
AFM imaging was done to understand the morphological characteristics of Aβ and NMI treated samples. The samples from Aβ aggregation inhibition and dissolution studies were used for AFM imaging. 25 μL of sample was drop-casted on freshly cleaved mica substrate. The Aβ samples were allowed to adhere to substrate surface for 15 min, washed with filtered MiliQ water and air dried. The samples were imaged in Scan assist Air mode in Bioscope resolve AFM system (Bruker). The images were processed and analyzed using NanoScope analysis software. […] It has been observed that the oligomers are a highly toxic species compared to Aβ fibrillar aggregates. The ability of NMIs (M3) to inhibit the formation of Aβ oligomers was assessed by dot blot assay. Aβ peptide (10 μM) was incubated with NMIs at 4° C. for 24 h followed by probing with A11 oligomer-specific antibody. […] Native PAGE and western blot analysis was carried out to understand the size distribution of Aβ aggregated species. […] In order to analyse the higher order aggregates not permeable in the gel matrix and the morphological characteristics, Aβ samples were subjected to atomic force microscopy (AFM) imaging.

The target of data set [3] is T3, preformed Aβ fibrillar aggregates (Homo sapiens, UniProt P05067).
T3 construct: is a 42 amino acid proteolytic product from the amyloid precursor protein; purchased Invitrogen
The experiment in a line: Dot blot assay of dissolution of preformed Aβ fibrillar aggregates. It counts as biochemical. The note with it: Aβ aggregates 10 μM; for dissolution efficiency: NMIs 20 μM, 48 h. As for the experimental part: Aggregation modulation by toxic Aβ aggregates were assessed and were quantified by dot blot assay. Aβ peptide (10 μM) was dissolved in phosphate buffered saline (PBS, 10 mM, pH 7.4), incubated alone and with NMIs (20 μM) at 37° C. for 48 h. For concentration dependent inhibition, 10 μM Aβ peptide was incubated with 1, 2, 5, 10 and 20 μM of NMIs and incubated. Samples for oligomer inhibition studies were prepared by incubating Aβ alone and with NMIs at 4° C. for 24 and subjected to dot blot analysis. For dissolution studies, Aβ peptide alone was incubated in PBS for 48 h to prepare fibrils and then incubated with NMIs further for 48 h. For dot blot experiment, 5 μL of sample was blotted on activated PVDF (polyvinylidene fluoride) membrane in triplicates and air dried. The membrane was blocked with skimmed milk powder for 1 h at room temperature. The blot paper was washed with tris-buffered saline with 0.01% Tween 20 (TBST) three times for 5 min. Blot paper was treated with fibril specific OC primary antibody (Rabbit, 1:1000 dilution) overnight at 4° C. For oligomers blot A11 anti-oligomer antibody (Rabbit 1:1000) was used. Blot was washed thrice with TBST and treated with HRP-conjugated antirabbit secondary antibody (1:5000 dilutions) for 1 h at room temperature. The bolt was washed thrice for 5 min with TBST and developed with ECL reagent (Biorad) and imaged with ChemiDoc BioRad gel documentation system in autoexposure mode. Blots were analyzed and quantified by ImageJ software. The fibrillar aggregates were formed by incubating Aβ peptide (10 μM) in PBS (pH 7.4) at 37° C. for 48 h. The aggregate samples were treated with NMIs (20 μM) for 48 h followed by dot blot analysis. […] These studies confirmed that M3 as the potential candidate to dissolve Aβ fibrillar aggregates to possibly nontoxic species.

Experimental findings from patent US20250179024A1, “AMYLOID AND ASSOCIATED PATHOLOGY MODULATORS AND METHODS THEREOF” (Jawaharlal Nehru Centre for Advanced Scientific Research, priority 2022, published 2025) are described below.

pEC50: −log10 of the molar value.

T2 sequence (P05067 672-713 limits assumed): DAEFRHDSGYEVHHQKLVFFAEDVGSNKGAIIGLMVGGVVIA
T3 sequence (P05067 672-713 limits assumed): as above
T1 sequence (P05067 672-713 limits assumed): as above

In the case of `CN(C)c1ccc2c3c(cccc13)C(=O)N(CCc1ccc(O)c(O)c1)C2=O` [M1, 2-(3,4-dihydroxyphenethyl)-6-(dimethylamino)-1H-benzo[de]isoquinoline-1,3(2H)-dione], the “interaction with Cu (II) and Zn (II), change in absorbance spectra” value in data set [1] (Cu or Zn 2.5 to 40 μM) is “effectively interacted with Cu (II) and Zn (II)”. In addition, in data set [1], the “chelation among different physiologically relevant metals, absorbance” value was “selectively chelated with Cu(II) and Zn (II)”. Also, the “formation of Aβ aggregates in the presence of Cu (II)” value in data set [2] was “reduced the formation of aggregates”. For the same compound, the “morphology of Aβ sample, aggregation inhibition” value on Aβ (NMIs 20 μM) is “amorphous structures”. In data set [3], this compound yielded a dissolution efficiency of roughly 44%.
With `O=C1c2cccc3c(N(Cc4ccccn4)Cc4ccccn4)ccc(c23)C(=O)N1CCc1ccc(O)c(O)c1` [M3, 6-(bis(pyridin-2-ylmethyl)amino)-2-(3,4-dihydroxyphenethyl)-1H-benzo[de]isoquinoline-1,3(2H)-dione], the “fluorescence intensity at 525 nm with increasing concentration of Cu(II) or Zn(II)” value in data set [1] (20 μM, Cu or Zn 2.5 to 40 μM) was “decreased”. Moreover, the “interaction with Cu (II) and Zn (II), change in absorbance spectra” value in data set [1] (Cu or Zn 2.5 to 40 μM) was “effectively interacted with Cu (II) and Zn (II)”. Also, the “chelation among different physiologically relevant metals, absorbance” value in data set [1] is “selectively chelated with Cu(II) and Zn (II)”. Besides, the “formation of Aβ aggregates in the presence of Cu (II)” value in data set [2] was “reduced the formation of aggregates”. In addition, the “morphology of metal-dependent Aβ aggregation” value at Aβ (Aβ 10 μM with Cu (II) or Zn (II), NMIs 20 μM, FIGS. 1E and 1F) was “minimal Aβ fibrils and mostly small amorphous clumps”. On Aβ (NMIs 20 μM), the “morphology of Aβ sample, aggregation inhibition” value is “amorphous structures”. Further, the “morphology of preformed fibrils after treatment” value at Aβ (Aβ aggregates 10 μM, FIG. 4C) is “amorphous clumps”. The pEC50 in data set [3] was 5.10. Besides, the dissolution is listed as 25% in data set [3] (0.1 molar ratio); 46% in data set [3] (0.2 molar ratio); 48% in data set [3] (0.5 molar ratio); 50% in data set [3] (1 molar ratio); 59% in data set [3] (2 molar ratio). For the same compound, the dissolution efficiency in data set [3] was 52%.

As a reminder, the pEC50 is the negative decadic logarithm of the EC50, by convention in mol/L.
